Counter-ions that a name gives are not always drawn. One block for each molecule: values may come before it.
Experiments:
JAK1 = JAK1 (Homo sapiens, UniProt P23458); experiment: JAK kinase inhibitory activity, HTRF biochemical assay
Procedure: (§1) The compounds of the above embodiments were applied to the detection and screening of JAK kinase inhibitory activity.
(§2) A corresponding volume of DMSO was added to each well of a first 96-well plate. 20-30 μL of 100-200 μM stock solution of different test compounds were added to each well. The mixture was shaken and mixed for 3 min. All of the compounds were subjected to 3× serial dilution. 60-80 μL Kinase buffer was added to each well of a second 96-well plate, and 1-2 μL of the solution taken from each well of the first 96-well plate was added to the corresponding well of the second 96-well plate. The mixture was shaken and mixed for 3 min. 5 μL of compound dilution taken from each well of the second compound dilution plate was transferred to the corresponding well of a 384-well test plate. 1-2 μL TK Substrate-biotin was added to each well of the test plate. 1-2 μL of enzyme mixture was added to each well. At the same time, a blank well without enzyme was set. 1-2 μL of ATP solution was added to each well, the plate was sealed and reacted at room temperature. The reaction time was as follows: JAK1: 2 h, JAK2: 30 min, JAK3: 30 min, and TYK2: 50 min. 3-5 μL of Streptavidin-XL665 and 3-5 μL of TK Antibody-cryptate were added to each well, the plate was sealed and allowed to stand at room temperature for 30 min to complete the reaction.
(§3) The percentage of inhibition was calculated based on the following formula:
(§4) Inhibition %=[(Ratiomax−Ratiocompound)/(Ratiomax−Ratiomin)]×100%
(§5) Ratiocompound is the HTRF ratio at a given compound concentration, Ratiomin is the HTRF ratio added to the blank well, and Ratiomax is the HTRF ratio without adding the compound. GraphPad Prism 5.0 software was used to plot a sigmoid dose-inhibition rate curve with a non-linear regression model and calculate the IC50 value.

JAK2 = JAK2 (Homo sapiens, UniProt O60674); experiment: as above
Procedure: as §1, §2, §3, §4, §5

JAK3 = molecular target: T1, JAK3 (Homo sapiens, UniProt P52333); experiment: as above
T1 sequence (P52333 1-1124): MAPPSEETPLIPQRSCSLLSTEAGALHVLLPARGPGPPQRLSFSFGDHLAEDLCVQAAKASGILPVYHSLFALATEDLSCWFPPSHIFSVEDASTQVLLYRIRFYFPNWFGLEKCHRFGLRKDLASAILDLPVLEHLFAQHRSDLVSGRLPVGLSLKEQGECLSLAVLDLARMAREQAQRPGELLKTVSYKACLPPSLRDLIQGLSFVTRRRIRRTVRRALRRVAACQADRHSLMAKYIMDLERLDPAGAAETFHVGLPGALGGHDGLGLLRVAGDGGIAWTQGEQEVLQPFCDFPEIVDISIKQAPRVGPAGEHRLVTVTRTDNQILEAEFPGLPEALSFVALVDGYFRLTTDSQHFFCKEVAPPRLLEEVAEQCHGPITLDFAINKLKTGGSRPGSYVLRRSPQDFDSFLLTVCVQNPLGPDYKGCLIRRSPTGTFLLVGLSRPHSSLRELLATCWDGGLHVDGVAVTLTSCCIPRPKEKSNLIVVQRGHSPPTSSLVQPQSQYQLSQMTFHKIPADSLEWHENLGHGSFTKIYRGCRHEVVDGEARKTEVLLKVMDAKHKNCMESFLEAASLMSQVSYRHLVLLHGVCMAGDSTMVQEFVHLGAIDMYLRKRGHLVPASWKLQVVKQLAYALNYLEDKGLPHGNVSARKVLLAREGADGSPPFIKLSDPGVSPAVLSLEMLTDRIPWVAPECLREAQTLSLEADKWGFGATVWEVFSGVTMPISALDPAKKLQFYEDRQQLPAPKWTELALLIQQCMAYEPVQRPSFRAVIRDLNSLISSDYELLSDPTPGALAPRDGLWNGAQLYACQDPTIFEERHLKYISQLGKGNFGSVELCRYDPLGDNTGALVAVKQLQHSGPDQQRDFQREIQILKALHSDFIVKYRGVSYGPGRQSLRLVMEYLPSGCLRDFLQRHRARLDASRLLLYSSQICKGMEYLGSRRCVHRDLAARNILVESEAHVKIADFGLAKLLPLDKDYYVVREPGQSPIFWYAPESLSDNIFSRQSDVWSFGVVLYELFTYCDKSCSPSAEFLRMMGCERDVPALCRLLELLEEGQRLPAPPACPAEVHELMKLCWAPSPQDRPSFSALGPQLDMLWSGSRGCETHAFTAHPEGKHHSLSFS
Procedure: as §1, §2, §3, §4, §5

TYK2 = TYK2 (Homo sapiens, UniProt P29597); experiment: as above
Procedure: as §1, §2, §3, §4, §5

Pharmacokinetic study = assay type: in vivo; details: rat, plasma; rats, oral, 1-10 mg/kg
Procedure: For the intravenous route and the oral route, the compound was formulated in an aqueous solution containing 5% DMSO+95% hydroxypropyl-β-cyclodextrin. Test animals were administered orally at 1-10 mg/kg and intravenously at 1-5 mg/kg. Each group included 3 rats. About 0.2 mL of blood was collected by jugular vein puncture with heparin sodium anticoagulant at the following time points: 0.083 h, 0.25 h, 0.5 h, 1 h, 2 h, 4 h, 6 h, 8 h, 10 h and 24 h. Plasma was separated by centrifugation at 5000-13000 rpm for 10 min within 1 hour after collecting the blood sample, and the plasma sample was analyzed on LC-MS/MS.
The pharmacokinetic parameters were calculated using Phoenix WinNonlin 7.0 based on blood drug concentration data at different time points to provide parameters such as AUC0-t, AUC0-∞, MRT0-∞, Cmax, Tmax, and T1/2.

BaF3 cells = experiment: Proliferation inhibition based on BaF3 cells (IL-3 medium, CTG); assay type: cell-based; details: Mus musculus, medium containing IL-3, read-out: IC50 (uM), proliferation inhibitory activity on BaF3 cells
Procedure: 1. Cell plating: cultured cells were collected with RPMI1640+10% FBS (containing IL-3) medium and counted for viable cells with Vi-Cell XR cell counter. The cell suspension was adjusted to an appropriate concentration with RPMI1640+10% FBS (containing IL-3) medium and then added to a 96-well cell culture plate. A certain amount of cell suspension was added to each well of the 96-well cell culture plate. The cells were cultured in corresponding incubators.
(§6) 2. Drug treatment: a series of test compound concentration (work solution-1) was prepared using DMSO with 3× gradient dilution, and then it was subjected to fold dilution with RPMI1640+10% FBS (containing IL-3) to obtain a work solution-2; Cisplatin's work solution-2 was prepared with RPMI1640+10% FBS (containing IL-3), and then 1-10 μL solution taken from the work solution-2 was added to the prepared cell wells containing medium. The cells were cultured in the corresponding incubators. An appropriate CTG solution was added to each well.
(§7) Cell Survival Rate Calculation
(§8) T is the luminescence reading of a drug treatment group, and C is the average luminescence reading of a solvent control group.

rat CIA model [1] = experiment: Hindfoot foot volume in rat CIA model; assay type: in vivo, Lewis rats; details: CIA rats, hindfoot
Procedure: (§10) Lewis rats (female, 10-12 weeks old) were obtained from Beijing Vital River Laboratory Animal Technology Co., Ltd. The rats were on a light and dark alternation for 12 h, and the environment was kept at a temperature of 23±2° C. and a humidity of 40-70%.
(§11) Type II collagen solution (2 mg/mL) was prepared with 0.05 M acetic acid solution to allow to be fully dissolved, and placed overnight in the dark at 4° C. During the test, 2 mg/mL type II collagen (C II) solution and 4 mg/mL complete Freund's adjuvant (CFA) solution were mixed in equal volumes under ice bath conditions to fully emulsify. On day 0, an emulsion prepared by mixing equal volumes of C II (2 mg/mL) and CFA (4 mg/mL) was injected intracutaneously into the base of the tail of experimental rats for primary immunization, and on day 7, secondary booster immunization was performed.
(§12) The therapeutic effect of the test compound was tested in a rat CIA model. The rats were randomly divided into groups with 8 animals in each group. All animals were immunized on day 0 and boosted on day 7.
(§13) Therefore, the differences in body weight and foot volume after the onset of arthritis compared with the negative group, respectively, can be used to evaluate the therapeutic effect in the rat model. The experimental data were expressed as Mean±SEM; the data between the two groups was tested by unpaired t-test and p<0.05 was considered as a significant difference.

THP1 cells = experiment: Proliferation inhibition based on THP1 cells (IL-4 stimulation, CTG); assay type: cell-based; details: Homo sapiens, THP-1, read-out: IC50 (uM), proliferation inhibitory activity on THP1 cells
Procedure: (§9) 1. Cell plating: cultured cells were collected and counted for viable cells with Vi-Cell XR cell counter. The cell suspension was adjusted to an appropriate concentration with the medium and then added to a 96-well cell culture plate. 80 μL of the cell suspension was added to each well of the 96-well cell culture plate. The cell plating density depended on the growth rate of the cells. The cells were cultured in corresponding incubators.
as §6, with “treatment and IL-4 stimulation: firstly,” for “treatment:”, “FBS” for “FBS (containing IL-3)”, “FBS,” for “FBS (containing IL-3),”, “incubators. After incubation, 1-10 μL of IL-4 medium was added to each well and continued to culture.” for “incubators.”
Cell Survial Rate Calculation
as §8

Hela cells = experiment: Proliferation inhibition based on Hela cells (OSM stimulation, CTG); assay type: cell-based; details: Homo sapiens, read-out: IC50 (uM), proliferation inhibitory activity on Hela cells
Procedure: as §9, with “50 μL-100” for “80”
2. Drug Treatment and OSM Stimulation
Firstly, a series of test compound concentration (work solution-1) was prepared using DMSO with 3× gradient dilution, and then it was subjected to fold dilution with RPMI1640+10% FBS to obtain a work solution-2; Cisplatin's work solution-2 was prepared with RPMI1640+10% FBS, and then 1-10 μL solution taken from the work solution-2 was added to the prepared cell wells containing medium. After incubation, 1-10 μL of OSM medium was added to each well and continued to culture. An appropriate CTG solution was added to each well. The mixture was shaken and mixed for 1-5 min and then a luminescence signal was determined with an Envision2104 plate reader.
as §7, §8

rat CIA model [2] = experiment: Arthritis index (AI) of extremities in rat CIA model; details: CIA rats, 2 mg/kg oral gavage once daily for 2 w, score 0-16;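 also: rats immunized with type II collagen plus complete Freund's adjuvant on day 0, boosted day 7, groups of 8, each paw graded 0-4 for swelling or redness, higher means worse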
Procedure: as §10, §11, §12
Foot volume was scored for the swelling of four toes at the same time, the score for each foot was 0-4, and the highest score for each rat was 16. 0—no swelling, normal appearance; 1—mild swelling or redness of the ankle joint, wrist joint or finger joint; 2—moderate swelling or redness of the ankle joint, wrist joint or finger joint; 3—severe swelling or redness of the ankle joint, wrist joint or finger joint; 4—very severe swelling or redness of the ankle joint, wrist joint or finger joint.

[3] = rat, in vivo, 2 mg/kg
Procedure: as §10, §11, §12, §13

Sequence of JAK1 (P23458 whole entry, species assumed): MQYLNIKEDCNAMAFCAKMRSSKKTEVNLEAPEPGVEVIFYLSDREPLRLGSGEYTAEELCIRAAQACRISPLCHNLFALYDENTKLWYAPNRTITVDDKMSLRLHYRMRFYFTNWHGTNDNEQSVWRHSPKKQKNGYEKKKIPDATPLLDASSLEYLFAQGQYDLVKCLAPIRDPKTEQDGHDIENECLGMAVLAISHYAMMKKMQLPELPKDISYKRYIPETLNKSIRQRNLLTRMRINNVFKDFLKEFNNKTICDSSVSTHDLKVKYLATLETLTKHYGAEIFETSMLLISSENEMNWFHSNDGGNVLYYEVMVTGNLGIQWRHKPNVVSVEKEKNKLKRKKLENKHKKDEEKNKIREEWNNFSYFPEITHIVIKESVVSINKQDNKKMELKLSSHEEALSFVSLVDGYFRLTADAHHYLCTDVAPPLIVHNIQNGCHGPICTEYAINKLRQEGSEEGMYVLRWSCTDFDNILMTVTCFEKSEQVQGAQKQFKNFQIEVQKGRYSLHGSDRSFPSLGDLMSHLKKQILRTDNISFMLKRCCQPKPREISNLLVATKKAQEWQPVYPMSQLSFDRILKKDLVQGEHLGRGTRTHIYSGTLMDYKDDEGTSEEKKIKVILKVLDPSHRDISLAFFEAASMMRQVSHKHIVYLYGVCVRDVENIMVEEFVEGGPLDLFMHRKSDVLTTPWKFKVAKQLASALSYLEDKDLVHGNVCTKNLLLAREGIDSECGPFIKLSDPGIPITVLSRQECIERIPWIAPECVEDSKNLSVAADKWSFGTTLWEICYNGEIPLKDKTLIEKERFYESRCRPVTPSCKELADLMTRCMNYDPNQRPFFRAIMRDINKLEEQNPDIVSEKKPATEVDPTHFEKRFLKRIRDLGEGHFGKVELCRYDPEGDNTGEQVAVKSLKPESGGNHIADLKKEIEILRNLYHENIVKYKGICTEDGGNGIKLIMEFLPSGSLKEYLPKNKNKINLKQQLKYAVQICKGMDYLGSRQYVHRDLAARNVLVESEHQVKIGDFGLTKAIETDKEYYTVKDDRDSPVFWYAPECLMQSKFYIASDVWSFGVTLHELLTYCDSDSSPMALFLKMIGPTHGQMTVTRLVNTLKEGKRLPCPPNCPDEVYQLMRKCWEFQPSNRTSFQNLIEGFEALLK
Sequence of JAK2 (O60674 whole entry, species assumed): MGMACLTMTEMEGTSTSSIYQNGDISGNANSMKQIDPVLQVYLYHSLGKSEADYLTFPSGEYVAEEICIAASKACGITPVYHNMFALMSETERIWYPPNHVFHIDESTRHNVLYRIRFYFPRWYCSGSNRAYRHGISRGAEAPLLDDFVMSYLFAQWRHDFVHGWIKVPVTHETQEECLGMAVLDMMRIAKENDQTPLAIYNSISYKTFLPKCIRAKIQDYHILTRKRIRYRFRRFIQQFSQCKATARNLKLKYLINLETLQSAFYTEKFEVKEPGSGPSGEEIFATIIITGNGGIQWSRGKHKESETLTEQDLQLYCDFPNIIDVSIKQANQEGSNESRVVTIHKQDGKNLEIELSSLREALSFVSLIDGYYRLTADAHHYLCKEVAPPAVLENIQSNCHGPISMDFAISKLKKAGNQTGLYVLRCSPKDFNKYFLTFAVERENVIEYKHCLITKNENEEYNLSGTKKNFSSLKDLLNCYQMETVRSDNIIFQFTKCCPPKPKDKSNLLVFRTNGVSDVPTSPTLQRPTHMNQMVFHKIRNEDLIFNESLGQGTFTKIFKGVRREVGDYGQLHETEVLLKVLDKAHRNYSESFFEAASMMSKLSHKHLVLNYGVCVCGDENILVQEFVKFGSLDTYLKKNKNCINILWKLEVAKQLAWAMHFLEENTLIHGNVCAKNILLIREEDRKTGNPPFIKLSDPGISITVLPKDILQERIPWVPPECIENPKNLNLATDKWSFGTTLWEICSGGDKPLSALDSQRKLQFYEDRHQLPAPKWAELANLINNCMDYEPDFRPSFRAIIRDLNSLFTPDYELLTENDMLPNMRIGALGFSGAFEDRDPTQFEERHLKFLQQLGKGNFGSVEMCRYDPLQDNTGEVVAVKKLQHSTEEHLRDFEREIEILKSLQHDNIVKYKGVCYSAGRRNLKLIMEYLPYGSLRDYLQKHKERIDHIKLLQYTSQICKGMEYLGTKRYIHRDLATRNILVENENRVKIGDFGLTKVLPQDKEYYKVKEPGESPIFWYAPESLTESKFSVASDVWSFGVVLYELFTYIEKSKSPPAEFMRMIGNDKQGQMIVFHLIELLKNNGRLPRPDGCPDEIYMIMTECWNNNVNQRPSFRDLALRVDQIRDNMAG
Sequence of TYK2 (P29597 whole entry, species assumed): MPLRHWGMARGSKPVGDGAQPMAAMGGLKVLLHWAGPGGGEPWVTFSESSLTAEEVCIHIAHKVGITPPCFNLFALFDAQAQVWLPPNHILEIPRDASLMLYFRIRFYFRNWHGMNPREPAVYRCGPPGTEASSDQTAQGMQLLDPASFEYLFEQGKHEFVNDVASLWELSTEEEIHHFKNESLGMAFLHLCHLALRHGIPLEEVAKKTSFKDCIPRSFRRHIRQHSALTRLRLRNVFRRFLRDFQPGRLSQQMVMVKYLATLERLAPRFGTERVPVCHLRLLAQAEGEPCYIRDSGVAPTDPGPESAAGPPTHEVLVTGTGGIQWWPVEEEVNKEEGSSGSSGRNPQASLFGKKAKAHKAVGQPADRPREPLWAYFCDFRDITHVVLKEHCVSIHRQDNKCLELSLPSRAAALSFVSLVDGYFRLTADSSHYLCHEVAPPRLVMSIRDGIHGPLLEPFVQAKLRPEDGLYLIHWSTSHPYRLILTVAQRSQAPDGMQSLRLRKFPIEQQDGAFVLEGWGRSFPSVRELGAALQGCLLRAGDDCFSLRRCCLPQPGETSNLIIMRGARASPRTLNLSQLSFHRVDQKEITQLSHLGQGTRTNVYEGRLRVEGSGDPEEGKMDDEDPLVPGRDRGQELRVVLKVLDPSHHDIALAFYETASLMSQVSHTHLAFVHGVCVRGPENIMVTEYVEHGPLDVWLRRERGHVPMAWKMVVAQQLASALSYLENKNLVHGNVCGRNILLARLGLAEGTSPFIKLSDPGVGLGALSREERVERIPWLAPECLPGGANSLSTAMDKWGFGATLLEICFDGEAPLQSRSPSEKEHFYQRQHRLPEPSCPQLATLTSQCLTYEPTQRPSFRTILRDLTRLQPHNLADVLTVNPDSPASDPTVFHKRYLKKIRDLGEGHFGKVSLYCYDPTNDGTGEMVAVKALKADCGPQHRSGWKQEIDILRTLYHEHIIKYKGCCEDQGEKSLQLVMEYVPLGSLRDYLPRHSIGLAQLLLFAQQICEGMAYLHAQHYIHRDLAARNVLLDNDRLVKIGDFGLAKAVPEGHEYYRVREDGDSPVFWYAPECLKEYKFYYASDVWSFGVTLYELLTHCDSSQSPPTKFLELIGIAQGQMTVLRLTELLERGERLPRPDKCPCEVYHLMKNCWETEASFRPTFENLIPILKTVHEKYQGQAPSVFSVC

IC50 (JAK1): 50 to 500 nM | IC50 (JAK2): 50 to 500 nM | IC50 (JAK3): > 500 nM | IC50 (TYK2): > 500 nM
Compound: O=C(Nc1nc2cccc(-c3ccc(CN4CCS(=O)(=O)CC4)s3)n2n1)[C@H]1C[C@@H]1F [EXP-6]

AUC (Pharmacokinetic study): 2850 ng·h/mL | Cmax (Pharmacokinetic study): 426 ng/mL | half-life (Pharmacokinetic study): 3.9 h | IC50 (BaF3 cells): 5 to 30 µM | IC50 (THP1 cells): 5 to 30 µM | IC50 (Hela cells): 5 to 30 µM
Compound: O=C(Nc1nc2cccc(-c3ccc(CN4CCS(=O)(=O)CC4)cc3)n2n1)C1CC1 [Filgotinib, reference compound]
Foot volume (ml)/Day (rat CIA model [1]; 10 mg/kg oral gavage once daily for 2 w, day 0): 2.597 ± 0.014 mL | Foot volume (ml)/Day (rat CIA model [1]; 10 mg/kg oral gavage once daily for 2 w, day 8): 2.589 ± 0.020 mL | Foot volume (ml)/Day (rat CIA model [1]; 10 mg/kg oral gavage once daily for 2 w, day 11): 2.700 ± 0.090 mL | Foot volume (ml)/Day (rat CIA model [1]; 10 mg/kg oral gavage once daily for 2 w, day 14): 3.644 ± 0.330 mL | Foot volume (ml)/Day (rat CIA model [1]; 10 mg/kg oral gavage once daily for 2 w, day 17): 4.702 ± 0.255 mL | Foot volume (ml)/Day (rat CIA model [1]; 10 mg/kg oral gavage once daily for 2 w, day 21): 4.829 mL | Foot volume (ml)/Day (rat CIA model [1]; 10 mg/kg oral gavage once daily for 2 w, day 24): 4.769 mL | Foot volume (ml)/Day (rat CIA model [1]; 10 mg/kg oral gavage once daily for 2 w, day 28): 4.363 mL

Compound: C[C@@H]1CCN(C(=O)CC#N)C[C@@H]1N(C)c1ncnc2[nH]ccc12 [Tofacitinib, tofacitinib citrate, reference compound]
Foot volume (ml)/Day (rat CIA model [1]; 2 mg/kg oral gavage once daily for 2 w, day 0): 2.637 ± 0.020 mL | Foot volume (ml)/Day (rat CIA model [1]; 2 mg/kg oral gavage once daily for 2 w, day 8): 2.619 ± 0.019 mL | Foot volume (ml)/Day (rat CIA model [1]; 2 mg/kg oral gavage once daily for 2 w, day 11): 2.646 ± 0.045 mL | Foot volume (ml)/Day (rat CIA model [1]; 2 mg/kg oral gavage once daily for 2 w, day 14): 3.848 ± 0.333 mL | Foot volume (ml)/Day (rat CIA model [1]; 2 mg/kg oral gavage once daily for 2 w, day 17): 4.636 ± 0.306 mL | Foot volume (ml)/Day (rat CIA model [1]; 2 mg/kg oral gavage once daily for 2 w, day 21): 4.710 mL | Foot volume (ml)/Day (rat CIA model [1]; 2 mg/kg oral gavage once daily for 2 w, day 24): 4.509 mL | Foot volume (ml)/Day (rat CIA model [1]; 2 mg/kg oral gavage once daily for 2 w, day 28): 4.125 mL | Arthritis index/Day (rat CIA model [2]; day 0): 0 ± 0 | Arthritis index/Day (rat CIA model [2]; day 8): 0 ± 0 | Arthritis index/Day (rat CIA model [2]; day 11): 0.63 ± 0.32 | Arthritis index/Day (rat CIA model [2]; day 14): 3.75 ± 0.77 | Arthritis index/Day (rat CIA model [2]; day 17): 5.25 ± 0.62 | Arthritis index/Day (rat CIA model [2]; day 21): 8.75 ± 0.59 | Arthritis index/Day (rat CIA model [2]; day 24): 8.75 ± 0.73 | Arthritis index/Day (rat CIA model [2]; day 28): 7.88 ± 0.58 | body weight course, in words [3]: increased slightly on days 11-17, but then fell back

From patent US20220274983A1, “JAK KINASE INHIBITOR AND USE THEREOF” (JIANGSU CAREPHAR PHARMACEUTICAL CO., LTD., priority 2019, published 2022)
